Assay results as given in US10329309B2, “3-(3H-imidazo[4,5-B]pyridin-2-yl)-1H-pyrazolo[4,3-B]pyridines and therapeutic uses thereof” (Samumed, LLC, priority 2015, dated 2019).

Tests used:
[1] = system: primary human fibroblasts derived from IPF patients (LL29 cells), α-smooth muscle actin (αSMA); experiment: Inhibition of the fibrotic process: TGF-β1-treated primary human fibroblasts from IPF patients, αSMA staining; assay type: cell-based; settings: Fibroblast, 96 h, 4 days; for EC50: LL29 fibroblasts from IPF patients, TGF-β1 20 ng/mL, inhibition of fibrotic process; for inhibition at 10 µM: LL29 fibroblasts, TGF-β1 treated, read-out: percent inhibition at 10 μM (given for EC50 of >10 μM)
How it was run: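 Compound dilutions from 10 μM down to […] are dispensed, LL29 cells added in F12 with 1% FBS, and TGF-β1 (20 ng/mL) follows after 1 h. After 4 days, live-cell αSMA positivity is measured by immunofluorescence and normalized to TGF-β1-treated wells to derive EC50.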

[2] = system: primary human mesenchymal stem cells (hMSCs); experiment: Induction of chondrogenesis in primary human mesenchymal stem cells (nodule imaging, Rhodamine B/Nile Red); assay type: cell-based; settings: hMSC chondrogenesis; for Emax: TGF-β3 as positive control, read-out: Max. Activity as % TGF-β3 activity; for EC50: concentration required to induce 50% levels of chondrogenesis vs TGF-β3, read-out: Conc (nM) of 50% TGF-β3 activity
How it was run: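 hMSCs (passage 3–6) in incomplete chondrogenic induction medium were dosed at 2700–10 nM (96-well, 6-point) or 5000–2.2 nM (384-well, 8-point), 0.03% DMSO final, for 6 days at 37° C. Fixed nodules stained with Rhodamine B/Nile Red were imaged; nodule area normalized to DMSO wells gave EC50, maximum activity and dose at maximum, with TGF-β3 (10 ng/mL) as positive control.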

SMILES: CC(C)CC(=O)Nc1cncc(-c2ccc3[nH]nc(-c4nc5c(-c6cccc(F)c6)ccnc5[nH]4)c3n2)c1 [Compound 2, N-(5-(3-(7-(3-fluorophenyl)-3H-imidazo[4,5-b]pyridin-2-yl)-1H-pyrazolo [4,3-b]pyridin-5-yl)pyridin-3-yl)-3-methylbutanamide]
- EC50 [1]: 292 nM
- Emax [2]: 56%
- EC50 [2]: 21 nM

SMILES: CN(C)c1cncc(-c2ccc3[nH]nc(-c4nc5c(-c6cccc(F)c6)ccnc5[nH]4)c3n2)c1 [Compound 7, 5-(3-(7-(3-fluorophenyl)-3H-imidazo[4,5-b]pyridin-2-yl)-1H-pyrazolo[4,3-b]pyridin-5-yl)-N,N-dimethylpyridin-3-amine]
- EC50 [1]: 2170 nM
- Emax [2]: 84%
- EC50 [2]: 10 nM

SMILES: CN(C)Cc1cncc(-c2ccc3[nH]nc(-c4nc5c(-c6cccc(F)c6)ccnc5[nH]4)c3n2)c1 [Compound 13, 1-(5-(3-(7-(3-fluorophenyl)-3H-imidazo[4,5-b]pyridin-2-yl)-1H-pyrazolo [4,3-b]pyridin-5-yl)pyridin-3-yl)-N,N-dimethylmethanamine]
- EC50 [1]: 1440 nM
- Emax [2]: 29%

SMILES: Fc1ccc(-c2ccnc3[nH]c(-c4n[nH]c5ccc(-c6cncc(CN7CCCC7)c6)nc45)nc23)cc1 [Compound 42, 3-(7-(4-fluorophenyl)-3H-imidazo[4,5-b]pyridin-2-yl)-5-(5-(pyrrolidin-1-ylmethyl)pyridin-3-yl)-1H-pyrazolo[4,3-b]pyridine]
- EC50 [1]: 1850 nM
- Emax [2]: 17%

SMILES: O=C(Nc1cncc(-c2ccc3[nH]nc(-c4nc5c(-c6ccc(F)cc6)ccnc5[nH]4)c3n2)c1)C1CCC1 [Compound 49, N-(5-(3-(7-(4-fluorophenyl)-3H-imidazo[4,5-b]pyridin-2-yl)-1H-pyrazolo [4,3-b]pyridin-5-yl)pyridin-3-yl)cyclobutanecarboxamide]
- EC50 [1]: 1370 nM
- Emax [2]: 69%
- EC50 [2]: 30 nM

SMILES: CC(C)(C)CC(=O)Nc1cncc(-c2ccc3[nH]nc(-c4nc5c(-c6ccccc6F)ccnc5[nH]4)c3n2)c1 [Compound 72, N-(5-(3-(7-(2-fluorophenyl)-3H-imidazo[4,5-b]pyridin-2-yl)-1H-pyrazolo [4,3-b]pyridin-5-yl)pyridin-3-yl)-3,3-dimethylbutanamide]
- EC50 [1]: > 10000 nM
- inhibition at 10 µM [1]: 0%

SMILES: Fc1ccccc1-c1ccnc2[nH]c(-c3n[nH]c4ccc(-c5ccccn5)nc34)nc12 [Compound 84, 3-(7-(2-Fluorophenyl)-3H-imidazo[4,5-b]pyridin-2-yl)-5-(pyridin-2-yl)-1H-pyrazolo[4,3-b]pyridine]
- EC50 [1]: > 10000 nM
- inhibition at 10 µM [1]: 29.4%

SMILES: c1cncc(-c2ccc3[nH]nc(-c4nc5c(-c6cccnc6)ccnc5[nH]4)c3n2)c1 [Compound 88, 5-(pyridin-3-yl)-3-(7-(pyridin-3-yl)-3H-imidazo[4,5-b]pyridin-2-yl)-1H-pyrazolo [4,3-b]pyridine]
- EC50 [1]: 747 nM
- Emax [2]: 95%
- EC50 [2]: 300 nM

SMILES: CC(C)Nc1cncc(-c2ccc3[nH]nc(-c4nc5c(-c6cccnc6)ccnc5[nH]4)c3n2)c1 [Compound 96, N-isopropyl-5-(3-(7-(pyridin-3-yl)-3H-imidazo[4,5-b]pyridin-2-yl)-1H-pyrazolo[4,3-b]pyridin-5-yl)pyridin-3-amine]
- EC50 [1]: 1760 nM
- Emax [2]: 113%
- EC50 [2]: 10 nM

SMILES: O=C(Nc1cncc(-c2ccc3[nH]nc(-c4nc5c(N6CCCCC6)ccnc5[nH]4)c3n2)c1)C1CC1 [Compound 188, N-(5-(3-(7-(Piperidin-1-yl)-3H-imidazo[4,5-b]pyridin-2-yl)-1H-pyrazolo [4,3-b]pyridin-5-yl)pyridin-3-yl)cyclopropanecarboxamide]
- EC50 [1]: > 10000 nM
- inhibition at 10 µM [1]: 0%

SMILES: Cc1ccncc1-c1ccc2[nH]nc(-c3nc4c(-c5ccsc5)ccnc4[nH]3)c2n1 [Compound 285, 5-(4-methylpyridin-3-yl)-3-(7-(thiophen-3-yl)-3H-imidazo[4,5-b]pyridin-2-yl)-1H-pyrazolo[4,3-b]pyridine]
- EC50 [1]: 2050 nM
- Emax [2]: 33%

SMILES: O=C(Nc1cncc(-c2ccc3[nH]nc(-c4nc5c(-c6ccsc6)ccnc5[nH]4)c3n2)c1)c1ccccc1 [Compound 291, N-(5-(3-(7-(Thiophen-3-yl)-3H-imidazo[4,5-b]pyridin-2-yl)-1H-pyrazolo [4,3-b]pyridin-5-yl)pyridin-3-yl)benzamide]
- EC50 [1]: > 10000 nM
- inhibition at 10 µM [1]: 42.5%

SMILES: CCCC(=O)Nc1cncc(-c2ccc3[nH]nc(-c4nc5c(-c6ccsc6)ccnc5[nH]4)c3n2)c1 [Compound 297, N-(5-(3-(7-(thiophen-3-yl)-3H-imidazo[4,5-b]pyridin-2-yl)-1H-pyrazolo[4,3-b]pyridin-5-yl)pyridin-3-yl)butyramide]
- EC50 [1]: 410 nM
- Emax [2]: 40%

SMILES: FC1(F)CCN(Cc2cncc(-c3ccc4[nH]nc(-c5nc6c(-c7ccsc7)ccnc6[nH]5)c4n3)c2)C1 [Compound 306, 5-(5-((3,3-difluoropyrrolidin-1-yl)methyl)pyridin-3-yl)-3-(7-(thiophen-3-yl)-3H-imidazo[4,5-b]pyridin-2-yl)-1H-pyrazolo[4,3-b]pyridine]
- EC50 [1]: 165 nM
- Emax [2]: 77%
- EC50 [2]: 30 nM

SMILES: CCNCc1cncc(-c2ccc3[nH]nc(-c4nc5c(-c6ccoc6)ccnc5[nH]4)c3n2)c1 [Compound 314, N-((5-(3-(7-(furan-3-yl)-3H-imidazo[4,5-b]pyridin-2-yl)-1H-pyrazolo[4,3-b]pyridin-5-yl)pyridin-3-yl)methyl)ethanamine]
- EC50 [1]: > 10000 nM
- inhibition at 10 µM [1]: 0%
- Emax [2]: 32%

SMILES: CC(C)Nc1cncc(-c2ccc3[nH]nc(-c4nc5c(-c6ccoc6)ccnc5[nH]4)c3n2)c1 [Compound 320, 5-(3-(7-(furan-3-yl)-3H-imidazo[4,5-b]pyridin-2-yl)-1H-pyrazolo[4,3-b]pyridin-5-yl)-N-isopropylpyridin-3-amine]
- EC50 [1]: 277 nM
- Emax [2]: 64%
- EC50 [2]: 100 nM

SMILES: CCCCC(=O)Nc1cncc(-c2ccc3[nH]nc(-c4nc5c(-c6ccoc6)ccnc5[nH]4)c3n2)c1 [Compound 327, N-(5-(3-(7-(furan-3-yl)-3H-imidazo[4,5-b]pyridin-2-yl)-1H-pyrazolo[4,3-b]pyridin-5-yl)pyridin-3-yl)pentanamide]
- EC50 [1]: 277 nM
- Emax [2]: 83%
- EC50 [2]: 10 nM

SMILES: CN(C)Cc1cncc(-c2ccc3[nH]nc(-c4nc5c(-c6cccs6)ccnc5[nH]4)c3n2)c1 [Compound 349, N,N-dimethyl-1-(5-(3-(7-(thiophen-2-yl)-3H-imidazo[4,5-b]pyridin-2-yl)-1H-pyrazolo[4,3-b]pyridin-5-yl)pyridin-3-yl)methanamine]
- EC50 [1]: 1420 nM
- Emax [2]: 108%
- EC50 [2]: 30 nM

SMILES: O=C(Nc1cncc(-c2ccc3[nH]nc(-c4nc5c(-c6cccs6)ccnc5[nH]4)c3n2)c1)C1CC1 [Compound 356, N-(5-(3-(7-(Thiophen-2-yl)-3H-imidazo[4,5-b]pyridin-2-yl)-1H-pyrazolo [4,3-b]pyridin-5-yl)pyridin-3-yl)cyclopropanecarboxamide]
- EC50 [1]: 4860 nM

SMILES: Cc1ccc(-c2ccnc3[nH]c(-c4n[nH]c5ccc(-c6cncc(N)c6)nc45)nc23)s1 [Compound 395, 5-(3-(7-(5-methylthiophen-2-yl)-3H-imidazo[4,5-b]pyridin-2-yl)-1H-pyrazolo[4,3-b]pyridin-5-yl)pyridin-3-amine]
- EC50 [1]: 97 nM
- Emax [2]: 118%
- EC50 [2]: 100 nM

SMILES: CS(=O)(=O)NCc1cc(F)cc(-c2ccnc3[nH]c(-c4n[nH]c5ccc(-c6cncc(CNCc7ccccc7)c6)nc45)nc23)c1 [Compound 500, N-(3-(2-(5-(5-((Benzylamino)methyl)pyridin-3-yl)-1H-pyrazolo[4,3-b]pyridin-3-yl)-3H-imidazo[4,5-b]pyridin-7-yl)-5-fluorobenzyl)methanesulfonamide]
- EC50 [1]: 9260 nM

SMILES: Fc1cccc(-c2ccnc3[nH]c(-c4n[nH]c5ccc(-c6cncc(OCCN7CCCC7)c6)nc45)nc23)c1 [Compound 514, 3-(7-(3-Fluorophenyl)-3H-imidazo[4,5-b]pyridin-2-yl)-5-(5-(2-(pyrrolidin-1-yl)ethoxy)pyridin-3-yl)-1H-pyrazolo[4,3-b]pyridine]
- EC50 [1]: > 10000 nM
- inhibition at 10 µM [1]: 0%

SMILES: COc1cccc(-c2ccnc3[nH]c(-c4n[nH]c5ccc(-c6cncc(NC(=O)CC(C)(C)C)c6)nc45)nc23)c1 [Compound 1006, N-(5-(3-(7-(3-methoxyphenyl)-3H-imidazo[4,5-b]pyridin-2-yl)-1H-pyrazolo[4,3-b]pyridin-5-yl)pyridin-3-yl)-3,3-dimethylbutanamide]
- EC50 [1]: 2490 nM

SMILES: COc1cccc(-c2ccnc3[nH]c(-c4n[nH]c5ccc(-c6cncc(NC(=O)C7CCCCC7)c6)nc45)nc23)c1 [Compound 1012, N-(5-(3-(7-(3-Methoxyphenyl)-3H-imidazo[4,5-b]pyridin-2-yl)-1H-pyrazolo [4,3-b]pyridin-5-yl)pyridin-3-yl)cyclohexanecarboxamide]
- EC50 [1]: 1170 nM

SMILES: NC1CN(c2cncc(-c3ccc4[nH]nc(-c5nc6c(-c7ccc(Cl)s7)ccnc6[nH]5)c4n3)n2)C1 [Compound 1068, 1-(6-(3-(7-(5-Chlorothiophen-2-yl)-3H-imidazo[4,5-b]pyridin-2-yl)-1H-pyrazolo[4,3-b]pyridin-5-yl)pyrazin-2-yl)azetidin-3-amine]
- EC50 [1]: 938 nM
